Laboratory results taken from ChEMBL document CHEMBL5244210, “Drug discovery in tuberculosis. New drug targets and antimycobacterial agents” (Eur J Med Chem, 2018).
Converted amounts (≈) assume the structure as drawn.

Key:
[1] = tested on: Mycobacterium tuberculosis; test: Antibacterial activity against Mycobacterium tuberculosis H37Rv infected in mouse RAW264.7 cells assessed as bacterial growth inhibition by REMA assay; format: functional
[2] = tested on: Mycobacterium tuberculosis; test: Antibacterial activity against wild type Mycobacterium tuberculosis H37Rv assessed as bacterial growth inhibition; format: functional, organism-based
[3] = tested on: Mycobacterium tuberculosis; test: Antibacterial activity against Mycobacterium tuberculosis infected in mouse RAW264.7 cells assessed as bacterial growth inhibition by REMA assay; format: functional, organism-based
[4] = tested on: Mycobacterium tuberculosis; test: Antibacterial activity against Mycobacterium tuberculosis assessed as bacterial growth inhibition; format: functional
[5] = tested on: Mycobacterium tuberculosis; test: Antibacterial activity against wild type Mycobacterium tuberculosis H37Rv infected in BALB/c mouse assessed as bacterial growth inhibition po administrated for 5 days a week via gavage for 4 weeks; format: functional; conditions: 672 h
[6] = molecular target: T1, Enoyl-[acyl-carrier-protein] reductase [NADH] (Mycobacterium tuberculosis) (UniProt P9WGR1); test: Inhibition of Mycobacterium tuberculosis InhA assessed as residence time
T1 sequence (whole entry): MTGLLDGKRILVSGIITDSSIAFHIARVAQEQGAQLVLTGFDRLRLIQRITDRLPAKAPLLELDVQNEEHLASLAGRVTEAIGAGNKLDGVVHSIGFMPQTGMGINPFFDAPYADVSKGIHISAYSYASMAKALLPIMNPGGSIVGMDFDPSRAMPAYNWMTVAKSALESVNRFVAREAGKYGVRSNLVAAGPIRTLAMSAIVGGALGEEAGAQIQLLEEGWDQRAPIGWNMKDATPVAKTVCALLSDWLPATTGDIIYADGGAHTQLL

[7] = Oral bioavailability in mouse; format: ADME, organism-based; conditions: in vivo
[8] = tested on: Mycobacterium tuberculosis; test: Antibacterial activity against Mycobacterium tuberculosis H37Rv infected in mouse RAW264.7 cells assessed as bacterial growth inhibition; format: functional
[9] = tested on: Mycobacterium tuberculosis; test: Antibacterial activity against wild type Mycobacterium tuberculosis H37Rv assessed as bacterial growth inhibition incubated for 6 days by HTS assay; format: functional; conditions: 144 h, time 6 day
[10] = tested on: Mycobacterium tuberculosis; test: Antibacterial activity against Mycobacterium tuberculosis H37Rv assessed as bacterial growth inhibition incubated for 6 days by resazurin staining based assay; format: functional; conditions: 144 h, time 6 day
[11] = tested on: Mycobacterium tuberculosis; test: Antibacterial activity against Mycobacterium tuberculosis MmpL3 assessed as bacterial growth inhibition by HTS assay; format: functional
[12] = tested on: Mycobacterium tuberculosis; test: Antibacterial activity against Mycobacterium tuberculosis H37Rv infected in human THP-1 cells assessed as bacterial growth inhibition; format: functional
[13] = tested on: Mycobacterium tuberculosis; test: Antibacterial activity against Mycobacterium tuberculosis H37Rv (ATCC 27294) assessed as bacterial growth inhibition by MABA assay; format: functional
[14] = tested on: Mycobacterium tuberculosis; test: Antibacterial activity against wild type Mycobacterium tuberculosis H37Rv assessed as bacterial growth inhibition by alamar blue staining based assay; format: functional
[15] = tested on: Mycobacterium tuberculosis; test: Antibacterial activity against Mycobacterium tuberculosis H37Rv (ATCC 27294) assessed as bacterial growth inhibition incubated for 7 days by MABA assay; format: functional; conditions: 168 h, time 7 day
[16] = tested on: Mycobacterium tuberculosis; test: Antibacterial activity against Mycobacterium tuberculosis H37RV ATCC 27294 assessed as bacterial growth inhibition; format: functional
[17] = tested on: Mycobacterium tuberculosis; test: Antibacterial activity against Mycobacterium tuberculosis H37Rv MTCC 300 assessed as bacterial growth inhibition by alamar blue assay; format: functional
[18] = tested on: Mycobacterium tuberculosis; test: Antibacterial activity against Mycobacterium tuberculosis assessed as bacterial growth inhibition by HTS assay; format: functional

Cc1c(OCC(F)(F)F)ccnc1CSc1nc2ccccc2[nH]1 [LANSOPRAZOLE SULFIDE]
MIC90 [1]: 1.13 µM (≈ 0.399 µg/mL)
IC50 [2]: 460 nM
IC50 [3]: 590 nM

CC[C@@H](CO)NCCN[C@@H](CC)CO [ETHAMBUTOL]
MIC [4]: 10 µM (≈ 2.04 µg/mL)

O=c1nc(N2CCN(CC3CCCCC3)CC2)sc2c([N+](=O)[O-])cc(C(F)(F)F)cc12 [MACOZINONE]
MIC [5]: 0.19 ng/mL (≈ 0.416 nM)
MIC [2]: 0.19 ng/mL

CCCCCCc1ccc(Oc2ccccc2C)c(O)c1
MIC [4]: 8.46 µM (≈ 2.41 µg/mL)
TIME [6]: 0.4 h

CCc1nc2ccc(Cl)cn2c1C(=O)NCc1ccc(N2CCC(c3ccc(OC(F)(F)F)cc3)CC2)cc1 [TELACEBEC]
bioavailability [7]: 90%
MIC50 [2]: 0.0027 µM (≈ 0.0015 µg/mL)
MIC50 [8]: 0.00028 µM (≈ 0.000156 µg/mL)

CC1(C)CCC(NC(=O)c2cc3c(Cl)cc(Cl)cc3[nH]2)CC1
MIC [9]: 0.015 µM (≈ 0.00509 µg/mL)

Oc1cc(Cl)ccc1Oc1ccc(Cl)cc1Cl [TRICLOSAN]
MIC [4]: 138 µM (≈ 40 µg/mL)

c1cc2c(s1)CCOC21CCN(Cc2ccc3c(c2)OCCO3)CC1
MIC [10]: 0.3 µM (≈ 0.107 µg/mL)

Fc1cc2nc(Cc3ccc(Cl)cc3)[nH]c2cc1-n1ccnc1
MIC [11]: 76.5 µM (≈ 25 µg/mL)

Cc1c(Cn2cc(C(=O)NCCO)c3ncccc32)ncnc1OC(F)F
MIC [12]: 0.78 µM (≈ 0.294 µg/mL)

Cc1c(Cn2cc(C(=O)NCCO)c3ncccc32)ncnc1N(C)C
MIC [12]: 0.5 µM (≈ 0.177 µg/mL)

CCOC(=O)NC(=O)c1ccsc1NC(=O)c1nc2ccccc2s1
MIC [4]: 0.027 µM (≈ 0.0101 µg/mL)

Cc1ccc(-c2nc3ccc(C)cn3c2CC(=O)N(C)C)cc1 [ZOLPIDEM]
MIC [13]: 10 µM (≈ 3.07 µg/mL)

FC(F)(F)Oc1ccc(Oc2ccc(CN3CCC4(CC3)OCCc3sccc34)cc2)cc1
MIC [10]: 0.06 µM (≈ 0.0285 µg/mL)

C[C@H]1COC2(CCN(c3nc(=S)c4cc(C(F)(F)F)cc([N+](=O)[O-])c4s3)CC2)O1
MIC [14]: 0.02 µM (≈ 0.00895 µg/mL)

CCc1ccc([C@H]2C[C@@H](C(F)(F)F)n3ncc(C(=O)NCc4ccc(OC)cc4)c3N2)cc1
MIC [10]: 0.3 µM (≈ 0.138 µg/mL)

C[C@H]1COC2(CCN(c3nc(=O)c4cc(C(F)(F)F)cc(-n5cccc5)c4s3)CC2)O1
MIC [2]: 0.35 µM

Cc1cn2c(C(=O)NCc3ccc(N4CCC(c5ccc(OC(F)(F)F)cc5)CC4)cc3)c(C)nc2s1
MIC [15]: 0.0009 µM (≈ 0.000476 µg/mL)

CCc1ccn2c(C(=O)NCc3ccc(C)cc3)c(C)nc2c1
MIC [13]: 0.004 µM (≈ 0.00123 µg/mL)

Cc1cn2c(C(=O)NCc3ccc(C(F)(F)F)cc3)c(C)nc2s1
MIC [15]: 0.006 µM (≈ 0.00212 µg/mL)

C[C@H]1COC2(CCN(c3nc(=O)c4cc(C(F)(F)F)cc([N+](=O)[O-])c4s3)CC2)O1 [BTZ-043]
MIC [5]: 1 ng/mL (≈ 2.32 nM)
MIC [2]: 0.00023 µM

CC(C)=CCC/C(C)=C/CNCCNC1C2CC3CC(C2)CC1C3 (stereo not drawn) [SQ109]
MIC [4]: 0.78 µM (≈ 0.258 µg/mL)

O=C(C1CCN(c2nnc(-n3cccc3)s2)CC1)N1CCC(Cc2ccccc2)CC1
MIC [4]: 4 µM (≈ 1.74 µg/mL)

CC1(C)CCC(NC(=O)c2cc3c(F)cc(F)cc3[nH]2)CC1
MIC [9]: 0.023 µM (≈ 0.00705 µg/mL)

CCc1ccc([C@H]2C[C@@H](C(F)(F)F)n3ncc(C(=O)NCc4ccc5c(c4)OCO5)c3N2)cc1
MIC [10]: 0.16 µM (≈ 0.0756 µg/mL)

OB1c2ccccc2N=C(S)N1c1cccnc1
MIC [16]: 31.4 µM (≈ 8.01 µg/mL)

CCCCCCc1ccc(Oc2ccccc2C#N)c(O)c1
MIC [4]: 11 µM (≈ 3.25 µg/mL)
TIME [6]: 1.33 h

CCCn1cnc2cc(NCc3ccc(Cl)cc3Cl)ccc21
MIC [11]: 16 µM (≈ 5.35 µg/mL)

Cc1c(OCC(F)(F)F)ccnc1C[S+]([O-])c1nc2ccccc2[nH]1 (stereo not drawn) [LANSOPRAZOLE]
IC50 [2]: 2200 nM

CN(C)c1ccc(-c2nc3cc(F)c(-n4ccnc4)cc3n2Cc2ccccc2)cc1
MIC [11]: 30.3 µM (≈ 12.5 µg/mL)

O=c1nc(N2CCN(CC3CCCCC3)CC2)sc2c(-n3cccc3)cc(C(F)(F)F)cc12
MIC [2]: 0.34 µM

O=C(Nc1nnc(-c2ccc([N+](=O)[O-])cc2)s1)C1CC(=O)N(c2ccccc2)C1 (stereo not drawn)
MIC [17]: 61 µM (≈ 25 µg/mL)

Cc1c(CN2CCOCC2)cc(-c2ccc(C(C)C)cc2)n1-c1ccc(F)cc1
MIC [18]: 0.12 µM (≈ 0.0471 µg/mL)

COc1ccc(CNc2nc3cc(C(F)(F)F)ccc3nc2C(=O)O)cc1
MIC [2]: 3.1 µM

Cc1c(CN2CCN(C)CC2)cc(-c2ccc(Cl)cc2)n1-c1ccc(Cl)cc1
MIC [18]: 3.62 µM (≈ 1.5 µg/mL)
